This is an account of results in patent publication US20070010897A1, “Immunochemically modified and sterilized xenografts and allografts” (priority 2005, published 2007).

Assay [1] relates to Porcine Parvovirus. The experiment in a line: Viral inactivation test, Porcine Parvovirus. The conditions noted are these: Porcine Parvovirus (NEnv./DNA); single process step (glutaraldehyde or E-beam 17.8 kGy).
The test system of assay [2] is Reovirus 3. The experiment in a line: Viral inactivation test, Reovirus 3. As to conditions: Reovirus 3 (NEnv./RNA); single process step (glutaraldehyde or E-beam 17.8 kGy).

`O=CCCCC=O` [Glutaraldehyde, glutaraldehyde]: the “Log10 Reduction” value in assay [1] is recorded as 1.91 Log10; in assay [2], 4.24 Log10.
